Assay results: ChEMBL document CHEMBL1143256, “Design, synthesis and preliminary pharmacological evaluation of new piperidine and piperazine derivatives as cognition-enhancers” (2008)

Tested on: Mus musculus
Assay: Antiamnesic activity in sc dosed mouse after 30 mins by passive avoidance test
Type: functional
Details: 0.5 h, read-out: MED

Row | SMILES | minimal effective dose
1 | CCCN1CCN(S(=O)(=O)c2ccc(F)cc2)CC1 | 1 mg/kg
2 | CC(=O)N1CCN(C(=O)c2ccccc2)C(=O)C1 | 10 mg/kg
3 | CCC(=O)N1CCC(CNS(=O)(=O)c2ccc(F)cc2)CC1 | 1 mg/kg
4 | CCC(=O)N1CCCC(NS(=O)(=O)c2ccc(F)cc2)C1 (stereo unspecified) | 10 mg/kg
5 | CC(C)S(=O)(=O)NC1CCCN(C(=O)c2ccccc2)C1 (stereo unspecified) | 1 mg/kg
6 | CCC(=O)NC1CCCN(C(C)=O)C1 (stereo unspecified) | 1 mg/kg
7 | CCC(=O)N1CCN(C(=O)c2ccccc2)CC1=O | 10 mg/kg
8 | CCC(=O)NCC1CCCN(S(=O)(=O)c2ccc(F)cc2)C1 (stereo unspecified) | 10 mg/kg
9 | CCC(=O)N1CCN(Cc2ccccc2)C(=O)C1 | 10 mg/kg
10 | CC(C)S(=O)(=O)N1CCCC(NS(=O)(=O)c2ccc(F)cc2)C1 (stereo unspecified) | 10 mg/kg
11 | CC(=O)N1CCN(S(=O)(=O)c2ccc(F)cc2)CC1=O | 0.3 mg/kg
12 | CCC(=O)N1CCN(S(=O)(=O)c2ccc(F)cc2)CC1=O | 0.3 mg/kg
13 | CC(=O)N1CCN(C(=O)c2ccccc2)CC1=O | 10 mg/kg
14 | CCC(=O)N1CCCC(NC(=O)c2ccccc2)C1 (stereo unspecified) | 1 mg/kg
15 | CCC(=O)NC1CCCN(S(=O)(=O)c2ccc(F)cc2)C1 (stereo unspecified) | 1 mg/kg
16 | CC(=O)NC1CCCN(S(=O)(=O)c2ccc(F)cc2)C1 (stereo unspecified) | 1 mg/kg

Row | SMILES | minimal effective dose
17 | CCC(=O)N1CCN(Cc2ccccc2)CC1 | 10 mg/kg
18 | CC(=O)N1CCN(S(=O)(=O)c2ccc(F)cc2)CC1 | 0.01 mg/kg
19 | CC(=O)N1CCC(NS(=O)(=O)c2ccc(F)cc2)CC1 | 0.1 mg/kg
20 | CC(=O)N1CCN(C(=O)c2ccccc2)CC1 | 10 mg/kg
21 | CC(C)S(=O)(=O)NC1CCCN(S(=O)(=O)c2ccc(F)cc2)C1 (stereo unspecified) | 1 mg/kg
22 | O=S(=O)(NCC1CCN(S(=O)(=O)c2ccc(F)cc2)CC1)c1ccc(F)cc1 | 1 mg/kg
23 | CCC(=O)NCC1CCN(C(=O)c2ccccc2)CC1 | 1 mg/kg
24 | CC(=O)NCC1CCCN(S(=O)(=O)c2ccc(F)cc2)C1 (stereo unspecified) | 10 mg/kg
25 | CC(=O)N1CCCC(NS(=O)(=O)c2ccc(F)cc2)C1 (stereo unspecified) | 1 mg/kg
26 | CCC(=O)N1CCC(NS(=O)(=O)c2ccc(F)cc2)CC1 | 10 mg/kg
27 | CCC(=O)NC1CCN(S(=O)(=O)c2ccc(F)cc2)CC1 | 0.1 mg/kg
28 | CCC(=O)NC1CCN(C(=O)c2ccccc2)CC1 | 0.1 mg/kg
29 | CCC(=O)N1CCN(S(=O)(=O)c2ccc(F)cc2)CC1 | 0.01 mg/kg
30 | CC(=O)NC1CCN(S(=O)(=O)c2ccc(F)cc2)CC1 [SAPUNIFIRAM] | 0.01 mg/kg
31 | CCC(=O)N1CCN(C(=O)c2ccccc2)CC1 [SUNIFIRAM] | 0.001 mg/kg
